Laboratory results taken from ChEMBL document CHEMBL4673219, “Novel 5,6-disubstituted pyrrolo[2,3-d]pyrimidine derivatives as broad spectrum antiproliferative agents: Synthesis, cell based assays, kinase profile and molecular docking study” (Bioorg Med Chem, 2018).
Several values for one entry are separate records, joined by “and”; a condition that tells them apart may be missing. Equal entries are not always repeated.

Assays:
Assay type in all cases: functional
MDA-MB-231 = assay: Growth inhibition of human MDA-MB-231/ATCC cells assessed as growth percentage at 10 uM incubated for 48 hrs by sulforhodamine B assay relative to control; details: read-out: Activity
MCF7 [1] = assay: Growth inhibition of human MCF7 cells assessed as growth percentage at 10 uM incubated for 48 hrs by sulforhodamine B assay relative to control; details: read-out: Activity
DU-145 [2] = assay: Growth inhibition of human DU-145 cells assessed as growth percentage at 10 uM incubated for 48 hrs by sulforhodamine B assay relative to control; details: read-out: Activity
SN12C = assay: Growth inhibition of human SN12C cells assessed as growth percentage at 10 uM incubated for 48 hrs by sulforhodamine B assay relative to control; details: read-out: Activity
OVCAR-8 = assay: Growth inhibition of human OVCAR-8 cells assessed as growth percentage at 10 uM incubated for 48 hrs by sulforhodamine B assay relative to control; details: read-out: Activity
SF-268 = assay: Growth inhibition of human SF-268 cells assessed as growth percentage at 10 uM incubated for 48 hrs by sulforhodamine B assay relative to control; details: read-out: Activity
NCI-H522 = assay: Growth inhibition of human NCI-H522 cells assessed as growth percentage at 10 uM incubated for 48 hrs by sulforhodamine B assay relative to control; details: read-out: Activity
NCI-H322M [3] = assay: Growth inhibition of human NCI-H322M cells assessed as growth percentage at 10 uM incubated for 48 hrs by sulforhodamine B assay relative to control; details: read-out: Activity
RPMI-8226 = assay: Growth inhibition of human RPMI-8226 cells assessed as growth percentage at 10 uM incubated for 48 hrs by sulforhodamine B assay relative to control; details: read-out: Activity
MCF7 [4] = assay: Growth inhibition of human MCF7 cells incubated for 48 hrs by sulforhodamine B assay
OVCAR-5 = assay: Growth inhibition of human OVCAR-5 cells incubated for 48 hrs by sulforhodamine B assay
OVCAR-4 [5] = assay: Growth inhibition of human OVCAR-4 cells incubated for 48 hrs by sulforhodamine B assay; details: for CC50: read-out: LC50 (the source's name)
SF-539 = assay: Growth inhibition of human SF-539 cells incubated for 48 hrs by sulforhodamine B assay
HCT-116 = assay: Growth inhibition of human HCT-116 cells incubated for 48 hrs by sulforhodamine B assay; details: for CC50: read-out: LC50 (the source's name)
NCI-H322M [6] = assay: Growth inhibition of human NCI-H322M cells incubated for 48 hrs by sulforhodamine B assay; details: for CC50: 48 h, read-out: LC50 (the source's name)
CCRF-CEM = assay: Growth inhibition of human CCRF-CEM cells incubated for 48 hrs by sulforhodamine B assay
SK-BR-3 [7] = assay: Antiproliferative activity against human SK-BR-3 cells assessed as cell growth inhibition measured after 72 hrs by MTT assay
SK-BR-3 [8] = assay: Antiproliferative activity against human SK-BR-3 cells assessed as cell growth inhibition at 10 uM measured after 72 hrs by MTT assay relative to control; details: read-out: GI
BT-549 = assay: Growth inhibition of human BT-549 cells assessed as growth percentage at 100 uM incubated for 48 hrs by sulforhodamine B assay relative to control; details: read-out: Activity
PC-3 = assay: Growth inhibition of human PC-3 cells assessed as growth percentage at 100 uM incubated for 48 hrs by sulforhodamine B assay relative to control; details: read-out: Activity
A498 = assay: Growth inhibition of human A498 cells assessed as growth percentage at 100 uM incubated for 48 hrs by sulforhodamine B assay relative to control; details: read-out: Activity
NCI/ADR-RES = assay: Growth inhibition of human NCI/ADR-RES cells assessed as growth percentage at 100 uM incubated for 48 hrs by sulforhodamine B assay relative to control; details: read-out: Activity
SW-620 = assay: Growth inhibition of human SW-620 cells assessed as growth percentage at 100 uM incubated for 48 hrs by sulforhodamine B assay relative to control; details: read-out: Activity
T47D = assay: Growth inhibition of human T47D cells assessed as growth percentage at 1 uM incubated for 48 hrs by sulforhodamine B assay relative to control; details: read-out: Activity
MCF7 [9] = assay: Growth inhibition of human MCF7 cells assessed as growth percentage at 1 uM incubated for 48 hrs by sulforhodamine B assay relative to control; details: read-out: Activity
DU-145 [10] = assay: Growth inhibition of human DU-145 cells assessed as growth percentage at 1 uM incubated for 48 hrs by sulforhodamine B assay relative to control; details: read-out: Activity
HCT-15 = assay: Growth inhibition of human HCT-15 cells assessed as growth percentage at 1 uM incubated for 48 hrs by sulforhodamine B assay relative to control; details: read-out: Activity
NCI-H23 = assay: Growth inhibition of human NCI-H23 cells assessed as growth percentage at 1 uM incubated for 48 hrs by sulforhodamine B assay relative to control; details: read-out: Activity
A549 = assay: Growth inhibition of human A549/ATCC cells assessed as growth percentage at 1 uM incubated for 48 hrs by sulforhodamine B assay relative to control; details: read-out: Activity
Hs-578T [11] = assay: Growth inhibition of human Hs-578T cells assessed as growth percentage at 0.1 uM incubated for 48 hrs by sulforhodamine B assay relative to control; details: read-out: Activity
UO-31 = assay: Growth inhibition of human UO-31 cells assessed as growth percentage at 0.1 uM incubated for 48 hrs by sulforhodamine B assay relative to control; details: read-out: Activity
OVCAR-4 [12] = assay: Growth inhibition of human OVCAR-4 cells assessed as growth percentage at 0.1 uM incubated for 48 hrs by sulforhodamine B assay relative to control; details: read-out: Activity
OVCAR-3 = assay: Growth inhibition of human OVCAR-3 cells assessed as growth percentage at 0.1 uM incubated for 48 hrs by sulforhodamine B assay relative to control; details: read-out: Activity
Malme-3M = assay: Growth inhibition of human Malme-3M cells assessed as growth percentage at 0.1 uM incubated for 48 hrs by sulforhodamine B assay relative to control; details: read-out: Activity
SF-295 = assay: Growth inhibition of human SF-295 cells assessed as growth percentage at 0.1 uM incubated for 48 hrs by sulforhodamine B assay relative to control; details: read-out: Activity
HCC 2998 = assay: Growth inhibition of human HCC 2998 cells assessed as growth percentage at 0.1 uM incubated for 48 hrs by sulforhodamine B assay relative to control; details: read-out: Activity
Hs-578T [13] = assay: Growth inhibition of human Hs-578T cells assessed as growth percentage at 0.01 uM incubated for 48 hrs by sulforhodamine B assay relative to control; details: read-out: Activity
SK-MEL-5 = assay: Growth inhibition of human SK-MEL-5 cells assessed as growth percentage at 0.01 uM incubated for 48 hrs by sulforhodamine B assay relative to control; details: read-out: Activity

CCCCCCCC(=O)Nc1nc2[nH]c(CN3CCN(Cc4cccc(F)c4)CC3)c(CN3CCN(Cc4cccc(F)c4)CC3)c2c(=O)[nH]1
growth at 10 µM (MDA-MB-231): -83% | growth at 10 µM (MCF7 [1]): -72.9% | growth at 10 µM (DU-145 [2]): -74.7% | growth at 10 µM (SN12C): -90.6% | growth at 10 µM (OVCAR-8): -77.7% | growth at 10 µM (SF-268): -92.2% | growth at 10 µM (NCI-H522): -71.5% | growth at 10 µM (NCI-H322M [3]): -41.2% | growth at 10 µM (RPMI-8226): -47.3% | GI50 (MCF7 [4]; 48 h): 0.19 µM | LC50 (MCF7 [4]; 48 h): 0.99 µM | TGI (MCF7 [4]; 48 h): 0.43 µM | GI50 (MCF7 [4]; Homo sapiens, MCF7, 48 h): 0.186 µM | LC50 (MCF7 [4]; Homo sapiens, MCF7, 48 h): 0.985 µM | TGI (MCF7 [4]; Homo sapiens, MCF7, 48 h): 0.428 µM | GI50 (OVCAR-5): 2.64 µM | TGI (OVCAR-5): 9.27 µM | GI50 (OVCAR-4 [5]): 1.21 µM | TGI (OVCAR-4 [5]): 2.54 µM | CC50 (OVCAR-4 [5]): 5.31 µM | GI50 (SF-539): 1.56 µM | GI50 (HCT-116; 48 h): 0.17 µM | TGI (HCT-116; 48 h): 0.32 µM | CC50 (HCT-116; 48 h): 0.6 µM | GI50 (HCT-116; Homo sapiens, HCT-116, 48 h): 0.171 µM | TGI (HCT-116; Homo sapiens, HCT-116, 48 h): 0.321 µM | CC50 (HCT-116; Homo sapiens, HCT-116, 48 h): 0.601 µM | GI50 (NCI-H322M [6]; Homo sapiens, NCI-H322M): 1.46 µM | TGI (NCI-H322M [6]; Homo sapiens, NCI-H322M): 2.92 µM | CC50 (NCI-H322M [6]; Homo sapiens, NCI-H322M): 5.83 µM | GI50 (CCRF-CEM; 48 h): 0.25 µM | LC50 (CCRF-CEM; 48 h): 100 µM and > 1 µM | GI50 (CCRF-CEM; Homo sapiens, CCRF-CEM, 48 h): 0.251 µM | GI50 (SK-BR-3 [7]): 3.91 µM | inhibition of growth at 10 µM (SK-BR-3 [8]): 93.1% | growth at 100 µM (BT-549): -91% | growth at 100 µM (PC-3): -88% | growth at 100 µM (A498): -98% | growth at 100 µM (NCI/ADR-RES): -86% | growth at 100 µM (SW-620): -69% | growth at 1 µM (T47D): 80% | growth at 1 µM (MCF7 [9]): -51% | growth at 1 µM (DU-145 [10]): 56% | growth at 1 µM (HCT-15): 1% | growth at 1 µM (NCI-H23): 92% | growth at 1 µM (A549): 8% | growth at 0.1 µM (Hs-578T [11]): 96% | growth at 0.1 µM (UO-31): 84% | growth at 0.1 µM (OVCAR-4 [12]): 84% | growth at 0.1 µM (OVCAR-3): 102% | growth at 0.1 µM (Malme-3M): 96% | growth at 0.1 µM (SF-295): 94% | growth at 0.1 µM (HCC 2998): 104% | growth at 0.01 µM (Hs-578T [13]): 97% | growth at 0.01 µM (SK-MEL-5): 100%

Nc1nc2[nH]c(CN3CCN(c4cc(Cl)cc(Cl)c4)CC3)c(CN3CCN(c4cc(Cl)cc(Cl)c4)CC3)c2c(=O)[nH]1
growth at 10 µM (MDA-MB-231): 71.9% | growth at 10 µM (MCF7 [1]): 23.4% | growth at 10 µM (DU-145 [2]): 81.3% | growth at 10 µM (SN12C): 73.1% | growth at 10 µM (OVCAR-8): 40.6% | growth at 10 µM (SF-268): 81.2% | growth at 10 µM (NCI-H522): 83.3% | growth at 10 µM (NCI-H322M [3]): 64.3% | growth at 10 µM (RPMI-8226): 38.4% | GI50 (MCF7 [4]; Homo sapiens, MCF7, 48 h): 1.58 µM | TGI (MCF7 [4]; Homo sapiens, MCF7, 48 h): 3.43 µM | GI50 (OVCAR-5): 2.64 µM | TGI (OVCAR-5): 9.27 µM | GI50 (OVCAR-4 [5]): 1.58 µM | TGI (OVCAR-4 [5]): 3.15 µM | CC50 (OVCAR-4 [5]): 6.25 µM | GI50 (SF-539): 1.72 µM | TGI (SF-539): 3.26 µM | GI50 (HCT-116; Homo sapiens, HCT-116, 48 h): 1.63 µM | TGI (HCT-116; Homo sapiens, HCT-116, 48 h): 3.17 µM | CC50 (HCT-116; Homo sapiens, HCT-116, 48 h): 6.18 µM | CC50 (NCI-H322M [6]): 73.2 µM and 7.32 µM | TGI (CCRF-CEM; Homo sapiens, CCRF-CEM): 5.52 µM | GI50 (CCRF-CEM; Homo sapiens, CCRF-CEM, 48 h): 2.07 µM | GI50 (SK-BR-3 [7]): 3.22 µM | inhibition of growth at 10 µM (SK-BR-3 [8]): 90% | growth at 100 µM (BT-549): -37% | growth at 100 µM (PC-3): -81% | growth at 100 µM (A498): -72% | growth at 100 µM (NCI/ADR-RES): 55% | growth at 100 µM (SW-620): -79% | growth at 1 µM (T47D): 85% | growth at 1 µM (MCF7 [9]): 79% | growth at 1 µM (DU-145 [10]): 105% | growth at 1 µM (HCT-15): 94% | growth at 1 µM (NCI-H23): 103% | growth at 1 µM (A549): 92% | growth at 0.1 µM (Hs-578T [11]): 88% | growth at 0.1 µM (UO-31): 92% | growth at 0.1 µM (OVCAR-4 [12]): 95% | growth at 0.1 µM (OVCAR-3): 106% | growth at 0.1 µM (Malme-3M): 90% | growth at 0.1 µM (SF-295): 93% | growth at 0.1 µM (HCC 2998): 99% | growth at 0.01 µM (Hs-578T [13]): 89% | growth at 0.01 µM (SK-MEL-5): 96%
